Legend:
Assay in all cases: relative viability (nuclei count vs DMSO), 5 days (fraction); higher = more cells survive
RU-SKI 43 + Crizotinib = compound: CC[C@@H](C)CNCC(=O)N1CCC2=C([C@@H]1COC3=CC=CC(=C3)C)C=CS2 [RU-SKI 43] + C[C@@H](Oc1cc(-c2cnn(C3CCNCC3)c2)cnc1N)c1c(Cl)ccc(F)c1Cl [Crizotinib] (partner 1 µM)
Outline: (§1)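 Relative viability was taken as the ratio of nuclei in treated wells to nuclei in vehicle wells. Lung cancer cell lines in 1536-well plates received compounds by pin tool one day after seeding, either one drug alone or a fixed anchor-drug dose plus five library-drug doses (not always all listed) in √10 steps. Nuclei were counted on 4× images after 5 days of treatment, and values are medians of duplicate plates.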

RU-SKI 43 + Linsitinib = compound: CC[C@@H](C)CNCC(=O)N1CCC2=C([C@@H]1COC3=CC=CC(=C3)C)C=CS2 [RU-SKI 43] + C[C@]1(O)C[C@@H](c2nc(-c3ccc4ccc(-c5ccccc5)nc4c3)c3c(N)nccn32)C1 [Linsitinib] (partner 1 µM)
Outline: as §1

RU-SKI 43 + Decitabine = compound: CC[C@@H](C)CNCC(=O)N1CCC2=C([C@@H]1COC3=CC=CC(=C3)C)C=CS2 [RU-SKI 43] + Nc1ncn([C@H]2C[C@H](O)[C@@H](CO)O2)c(=O)n1 [Decitabine] (partner 2 µM)
Outline: as §1

MK-8033 + Bortezomib = compound: Cn1cc(-c2cnc3ccc4ccc(CS(=O)(=O)NCc5ccccn5)cc4c(=O)c3c2)cn1 [MK-8033] + CC(C)C[C@H](NC(=O)[C@H](Cc1ccccc1)NC(=O)c1cnccn1)B(O)O [Bortezomib] (partner 0.002 µM)
Outline: as §1

| Cell Line | relative viability (RU-SKI 43 + Crizotinib; first compound 0.1 µM) | relative viability (RU-SKI 43 + Crizotinib; first compound 0.3162 µM) | relative viability (RU-SKI 43 + Crizotinib; first compound 1 µM) | relative viability (RU-SKI 43 + Crizotinib; first compound 3.162 µM) | relative viability (RU-SKI 43 + Crizotinib; first compound 10 µM) | relative viability (RU-SKI 43 + Linsitinib; first compound 0.1 µM) | relative viability (RU-SKI 43 + Linsitinib; first compound 0.3162 µM) | relative viability (RU-SKI 43 + Linsitinib; first compound 1 µM) | relative viability (RU-SKI 43 + Linsitinib; first compound 3.162 µM) | relative viability (RU-SKI 43 + Linsitinib; first compound 10 µM) | relative viability (RU-SKI 43 + Decitabine; first compound 0.1 µM) | relative viability (RU-SKI 43 + Decitabine; first compound 0.3162 µM) | relative viability (RU-SKI 43 + Decitabine; first compound 1 µM) | relative viability (RU-SKI 43 + Decitabine; first compound 3.162 µM) | relative viability (RU-SKI 43 + Decitabine; first compound 10 µM) | relative viability (MK-8033 + Bortezomib; first compound 0.02 µM) | relative viability (MK-8033 + Bortezomib; first compound 0.06325 µM) | relative viability (MK-8033 + Bortezomib; first compound 0.2 µM) | relative viability (MK-8033 + Bortezomib; first compound 0.6325 µM) | relative viability (MK-8033 + Bortezomib; first compound 2 µM) |
| --- | --- | --- | --- | --- | --- | --- | --- | --- | --- | --- | --- | --- | --- | --- | --- | --- | --- | --- | --- | --- |
| HARA | 1.16 | 0.971 | 1.08 | 1.18 | 0.975 | 1.03 | 1.02 | 1.09 | 1.05 | 0.851 | 0.497 | 0.682 | 0.566 | 0.46 | 0.47 | 1.07 | 1.1 | 1.13 | 1.17 | 1.07 |
| HCC-15 | 0.806 | 1.01 | 0.962 | 0.873 | 0.807 | 0.964 | 1.1 | 0.988 | 0.946 | 0.882 | 0.545 | 0.688 | 0.732 | 0.606 | 0.587 | 1.04 | 1.01 | 0.99 | 1.05 | 0.952 |
| HCC-44 | 0.778 | 0.785 | 0.846 | 0.796 | 0.806 | 0.595 | 0.647 | 0.835 | 0.69 | 0.645 | 0.98 | 0.911 | 0.922 | 0.977 | 0.953 | 0.9 | 0.838 | 0.803 | 0.907 | 0.833 |
| IA-LM | 0.759 | 0.797 | 0.663 | 0.736 | 0.64 | 0.623 | 0.563 | 0.512 | 0.552 | 0.577 |  |  |  |  |  | 0.791 | 0.746 | 0.83 | 0.782 | 0.802 |
| LK-2 | 0.206 | 0.219 | 0.256 |  | 0.199 | 0.74 | 0.564 | 0.674 | 0.495 | 0.889 | 0.317 | 0.279 | 0.408 | 0.298 | 0.246 |  |  |  |  |  |
| NCI-H358 | 0.604 | 0.484 | 0.512 | 0.578 | 0.35 | 0.706 | 0.781 | 0.819 | 0.933 | 0.687 | 0.199 | 0.184 | 0.248 | 0.217 | 0.19 |  |  |  |  |  |
| NCI-H522 |  |  |  |  |  |  |  |  |  |  | 0.682 | 0.568 | 0.669 | 0.768 | 0.677 |  |  |  |  |  |
| NCI-H1299 | 0.947 | 1.12 | 0.995 | 1.01 | 0.957 | 1.03 | 1.2 | 1.1 | 1.04 | 0.965 |  |  |  |  |  | 1.03 | 0.997 | 1.03 | 1.05 | 1 |
| NCI-H1395 |  |  |  |  |  | 0.994 | 1.43 | 1.1 | 0.968 | 1.15 | 0.661 | 0.858 | 0.776 | 0.714 | 0.696 |  |  |  |  |  |
| NCI-H1563 | 0.789 | 0.773 | 0.825 | 0.836 | 0.734 | 1.2 | 1.2 | 1.11 | 1.09 | 1.13 |  |  |  |  |  | 0.951 | 0.823 | 0.857 | 0.833 | 0.838 |
| NCI-H1648 |  |  |  |  |  |  |  |  |  |  | 0.452 | 0.535 | 0.466 | 0.554 | 0.444 |  |  |  |  |  |
| NCI-H1650 | 0.968 | 0.916 | 0.971 | 0.991 | 0.67 |  |  |  |  |  | 0.315 | 0.36 | 0.338 | 0.509 | 0.34 | 0.198 | 0.181 | 0.197 | 0.234 | 0.218 |
| NCI-H1703 |  | 0.734 | 0.61 | 0.594 | 0.381 | 0.653 | 1.02 | 0.545 | 0.636 | 0.503 |  |  |  |  |  | 0.401 | 0.302 | 0.268 | 0.307 | 0.298 |
| NCI-H1793 |  |  |  |  |  | 0.98 | 0.959 | 0.988 | 0.928 | 0.809 | 0.461 | 0.421 | 0.458 | 0.486 | 0.443 |  |  |  |  |  |
| NCI-H1944 | 1.17 | 1.19 | 1.25 | 1.25 | 0.991 | 1.24 | 1.2 | 1.34 | 1.24 | 1.15 | 0.449 | 0.4 | 0.423 | 0.473 | 0.442 |  |  |  |  |  |
| NCI-H2170 | 1.26 | 1.42 | 1.49 | 1.22 | 1.07 |  |  |  |  |  | 0.439 | 0.514 | 0.438 | 0.426 | 0.49 |  |  |  |  |  |
| NCI-H2228 | 0.498 | 0.416 | 0.448 | 0.579 | 0.306 | 0.858 | 0.507 | 0.828 | 0.885 | 0.427 |  |  |  |  |  | 1.04 | 0.932 | 1.08 | 0.998 | 1.06 |
| NCI-H2342 |  |  |  |  |  |  |  |  |  |  | 0.701 |  | 0.724 | 0.797 | 0.769 |  |  |  |  |  |
| SK-MES-1 | 0.862 | 1.07 | 1.06 | 1.09 | 0.98 | 1.03 | 1.1 | 1.18 | 1.04 | 1.01 | 0.313 | 0.385 | 0.391 | 0.403 | 0.389 |  |  |  |  |  |
| SW 900 |  |  |  |  |  |  |  |  |  |  | 0.422 | 0.408 | 0.423 | 0.428 | 0.453 |  |  |  |  |  |

— the supplement of paper PMC10307832
